According to patent US6355799B1, “Substituted benzene compounds, process for their preparation, and herbicidal and defoliant compositions containing them” (ISK Americas Incorporated, priority 1997, dated 2002):

How the values were obtained:
Assay type in all cases: in vivo
[1] = tested on: ivyleaf morningglory (Ipomoea hederacea, IPOHE); assay: Pre-emerge test, greenhouse herbicide activity screening; settings: pre-emerge, phytotoxicity rating 0-100 at 14 days after application
How it was run: (§1)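 Fourteen days after spraying, crop and weed injury was graded visually from 0, no effect, to 100, every plant dead. Test substances were dissolved in acetone and applied at 15–1000 g ai/ha with a flat-fan nozzle. Application was either pre-emergence, one day after sowing, or post-emergence at the 2–3 leaf stage.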

[2] = tested on: green foxtail (Setaria viridis, SETVI); assay: as above; settings: pre-emerge, phytotoxicity rating 0-100 at 14 days after application
How it was run: as §1

[3] = tested on: johnsongrass (Sorghum halepense, SORHA); assay: as above; settings: pre-emerge, phytotoxicity rating 0-100 at 14 days after application
How it was run: as §1

[4] = tested on: lambsquarters (Chenopodium album, CHEAL); assay: as above; settings: pre-emerge, phytotoxicity rating 0-100 at 14 days after application
How it was run: as §1

[5] = tested on: sicklepod (Cassia obtusifolia, CASOB); assay: as above; settings: pre-emerge, phytotoxicity rating 0-100 at 14 days after application
How it was run: as §1

[6] = tested on: barnyardgrass (Echinochloa crus-galli, ECHCG); assay: as above; settings: pre-emerge, phytotoxicity rating 0-100 at 14 days after application
How it was run: as §1

[7] = tested on: large crabgrass (Digitaria sanguinalis, DIGSA); assay: as above; settings: pre-emerge, phytotoxicity rating 0-100 at 14 days after application
How it was run: as §1

[8] = tested on: velvetleaf (Abutilon theophrasti, ABUTH); assay: as above; settings: pre-emerge, phytotoxicity rating 0-100 at 14 days after application
How it was run: as §1

[9] = tested on: field corn (Zea mays L., var. Dekalb 535, CORN); assay: Post-emerge test, crop safety; settings: post-emerge, crop damage rating 0-100 at 14 days after application
How it was run: as §1

[10] = tested on: upland rice (Oryza sp., var. Tebonnet, RICE); assay: Post-emerge test, crop safety; settings: post-emerge, crop damage rating 0-100 at 14 days after application
How it was run: as §1

[11] = tested on: ivyleaf morningglory (Ipomoea hederacea, IPOHE); assay: Post-emerge test, greenhouse herbicide activity screening; settings: post-emerge, phytotoxicity rating 0-100 at 14 days after application
How it was run: as §1

[12] = tested on: green foxtail (Setaria viridis, SETVI); assay: as above; settings: post-emerge, phytotoxicity rating 0-100 at 14 days after application
How it was run: as §1

[13] = tested on: johnsongrass (Sorghum halepense, SORHA); assay: as above; settings: post-emerge, phytotoxicity rating 0-100 at 14 days after application
How it was run: as §1

[14] = tested on: lambsquarters (Chenopodium album, CHEAL); assay: as above; settings: post-emerge, phytotoxicity rating 0-100 at 14 days after application
How it was run: as §1

[15] = tested on: sicklepod (Cassia obtusifolia, CASOB); assay: as above; settings: post-emerge, phytotoxicity rating 0-100 at 14 days after application
How it was run: as §1

[16] = tested on: barnyardgrass (Echinochloa crus-galli, ECHCG); assay: as above; settings: post-emerge, phytotoxicity rating 0-100 at 14 days after application
How it was run: as §1

[17] = tested on: large crabgrass (Digitaria sanguinalis, DIGSA); assay: as above; settings: post-emerge, phytotoxicity rating 0-100 at 14 days after application
How it was run: as §1

[18] = tested on: velvetleaf (Abutilon theophrasti, ABUTH); assay: as above; settings: post-emerge, phytotoxicity rating 0-100 at 14 days after application
How it was run: as §1

[19] = tested on: redroot pigweed (Amaranthus retroflexus, AMARE); assay: as above; settings: post-emerge, phytotoxicity rating 0-100 at 14 days after application
How it was run: as §1

[20] = tested on: field corn (Zea mays L., var. Dekalb 535, CORN); assay: Pre-emerge test, crop safety; settings: crop damage, pre-emerge, phytotoxicity rating 0-100 at 14 days after application
How it was run: (§2)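 Rating: 0–100 visual injury, 14 DAA. Application: acetone, 187 l/ha, 15–1000 g ai/ha, flat-fan track sprayer with nozzle 40–45 cm above soil or canopy. Post-emerge runs used 0.25% v/v surfactant on 2–3 leaf plants.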

[21] = tested on: upland rice (Oryza sp., var. Tebonnet, RICE); assay: Pre-emerge test, crop safety; settings: crop damage, pre-emerge, phytotoxicity rating 0-100 at 14 days after application
How it was run: as §2

[22] = tested on: redroot pigweed (Amaranthus retroflexus, AMARE); assay: Pre-emerge test, greenhouse herbicide activity screening; settings: pre-emerge, phytotoxicity rating 0-100 at 14 days after application
How it was run: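 Herbicidal damage is scored 0 (none) to 100 (complete plant death) two weeks after a simulated field spray. Rates span 15–1000 g ai/ha, delivered in acetone at 187 l/ha. For post-emergence treatments, plants have 2–3 leaves and the spray carries 0.25% v/v non-ionic surfactant.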

Which “Pre-emerge Herbicidal Activity IPOHE” value ([1]; rate 63 g ai/ha) does the source give for `Cc1ccc(COC(=O)Nc2c(C)c(Cl)cc(F)c2-n2c(=O)cc(C(F)(F)F)n(C)c2=O)cc1` [4-60] here?
Its value is 50.

And the “Pre-emerge Herbicidal Activity IPOHE” value ([1]; rate 250 g ai/ha)?
The value was 100.

What about the “Pre-emerge Herbicidal Activity SETVI” value ([2]; rate 63 g ai/ha) of the same compound?
The value was 90.

What about the “Pre-emerge Herbicidal Activity SETVI” value ([2]; rate 250 g ai/ha) of the same compound?
The value was 100.

And the “Pre-emerge Herbicidal Activity SORHA” value ([3]; rate 63 g ai/ha)?
Its value is 30.

What about the “Pre-emerge Herbicidal Activity SORHA” value ([3]; rate 250 g ai/ha) of the same compound?
The value was 50.

What about the “Pre-emerge Herbicidal Activity CHEAL” value ([4]; rate 63 g ai/ha) of the same compound?
Its value is 100.

What about the “Pre-emerge Herbicidal Activity CHEAL” value ([4]; rate 250 g ai/ha) of the same compound?
The value was 100.

What about the “Pre-emerge Herbicidal Activity CASOB” value ([5]; rate 63 g ai/ha) of the same compound?
Its value is 90.

What about the “Pre-emerge Herbicidal Activity CASOB” value ([5]; rate 250 g ai/ha) of the same compound?
Its value is 100.

And the “Pre-emerge Herbicidal Activity ECHCG” value ([6]; rate 63 g ai/ha)?
The value was 40.

What about the “Pre-emerge Herbicidal Activity ECHCG” value ([6]; rate 250 g ai/ha) of the same compound?
The value was 70.

And the “Pre-emerge Herbicidal Activity DIGSA” value ([7]; rate 63 g ai/ha)?
Its value is 100.

What about the “Pre-emerge Herbicidal Activity DIGSA” value ([7]; rate 250 g ai/ha) of the same compound?
Its value is 100.

And the “Pre-emerge Herbicidal Activity ABUTH” value ([8]; rate 63 g ai/ha)?
Its value is 100.

And the “Pre-emerge Herbicidal Activity ABUTH” value ([8]; rate 250 g ai/ha)?
Its value is 100.

And the “Post-emerge Herbicidal Activity CORN” value ([9]; 63 g ai/ha)?
Its value is 25.

And the “Post-emerge Herbicidal Activity CORN” value ([9]; 250 g ai/ha)?
Its value is 55.

And the “Post-emerge Herbicidal Activity RICE” value ([10]; 63 g ai/ha)?
Its value is 50.

And the “Post-emerge Herbicidal Activity RICE” value ([10]; 250 g ai/ha)?
Its value is 70.

What about the “Post-emerge Herbicidal Activity IPOHE” value ([11]; 63 g ai/ha) of the same compound?
Its value is 100.

And the “Post-emerge Herbicidal Activity IPOHE” value ([11]; 250 g ai/ha)?
Its value is 100.

And the “Post-emerge Herbicidal Activity SETVI” value ([12]; 63 g ai/ha)?
Its value is 65.

What about the “Post-emerge Herbicidal Activity SETVI” value ([12]; 250 g ai/ha) of the same compound?
The value was 90.

And the “Post-emerge Herbicidal Activity SORHA” value ([13]; 63 g ai/ha)?
Its value is 50.

And the “Post-emerge Herbicidal Activity SORHA” value ([13]; 250 g ai/ha)?
The value was 50.

What about the “Post-emerge Herbicidal Activity CHEAL” value ([14]; 63 g ai/ha) of the same compound?
The value was 100.

What about the “Post-emerge Herbicidal Activity CHEAL” value ([14]; 250 g ai/ha) of the same compound?
The value was 100.

What about the “Post-emerge Herbicidal Activity CASOB” value ([15]; 63 g ai/ha) of the same compound?
The value was 60.

And the “Post-emerge Herbicidal Activity CASOB” value ([15]; 250 g ai/ha)?
Its value is 100.

And the “Post-emerge Herbicidal Activity ECHCG” value ([16]; 63 g ai/ha)?
The value was 60.

And the “Post-emerge Herbicidal Activity ECHCG” value ([16]; 250 g ai/ha)?
The value was 50.

What about the “Post-emerge Herbicidal Activity DIGSA” value ([17]; 63 g ai/ha) of the same compound?
Its value is 40.

And the “Post-emerge Herbicidal Activity DIGSA” value ([17]; 250 g ai/ha)?
The value was 60.

What about the “Post-emerge Herbicidal Activity ABUTH” value ([18]; 63 g ai/ha) of the same compound?
Its value is 100.

And the “Post-emerge Herbicidal Activity ABUTH” value ([18]; 250 g ai/ha)?
Its value is 100.

What about the “Post-emerge Herbicidal Activity AMARE” value ([19]; 63 g ai/ha) of the same compound?
Its value is 100.

What about the “Post-emerge Herbicidal Activity AMARE” value ([19]; 250 g ai/ha) of the same compound?
The value was 100.

What about the “Pre-emerge Herbicidal Activity CORN” value ([20]; rate 63 g ai/ha) of the same compound?
Its value is 0.

And the “Pre-emerge Herbicidal Activity CORN” value ([20]; rate 250 g ai/ha)?
The value was 30.

What about the “Pre-emerge Herbicidal Activity RICE” value ([21]; rate 63 g ai/ha) of the same compound?
Its value is 60.

What about the “Pre-emerge Herbicidal Activity RICE” value ([21]; rate 250 g ai/ha) of the same compound?
The value was 70.

And the “Pre-emerge Herbicidal Activity AMARE” value ([22]; rate 63 g ai/ha)?
Its value is 100.

And the “Pre-emerge Herbicidal Activity AMARE” value ([22]; rate 250 g ai/ha)?
The value was 100.
